Reference: patent US20090149417A1, “Methods and compositions for the treatment of cancer using benzopyrone-type PARP inhibitors” (priority 2007, published 2009)

Key:
Assay type in all cases: cell-based, human
[1] = tested on: Colo375FG metastatic pancreatic adenocarcinoma cells; assay: TUNEL apoptosis assay (flow cytometry)
Description: Cells are labeled for apoptosis with the “In Situ Cell Death Detection Kit, Fluorescein” (Roche Diagnostics Corporation, Roche Applied Science, Indianapolis, Ind.). Briefly, fixed cells are centrifuged and washed once in phosphate-buffered saline (PBS) containing 1% bovine serum albumin (BSA), then resuspended in 2 ml permeabilization buffer (0.1% Triton X-100 and 0.1% sodium citrate in PBS) for 25 min at room temperature and washed twice in 0.2 ml PBS/1% BSA. The cells are resuspended in 50 μl TUNEL reaction mixture (TdT enzyme and labeling solution) and incubated for 60 min at 37° C. in a humidified dark atmosphere in an incubator. The labeled cells are washed once in PBS/1% BSA, then resuspended in 0.5 ml ice-cold PBS containing 1 μg/ml 4′,6-diamidino-2-phenylindole (DAPI) for at least 30 min. All cell samples are analyzed with a BD LSR II (BD Biosciences, San Jose, Calif.).
The cells are labeled for apoptosis with the “In Situ Cell Death Detection Kit, Fluorescein” (Roche Diagnostics Corporation, Roche Applied Science, Indianapolis, Ind.). Briefly, fixed cells are centrifuged and washed once in phosphate-buffered saline (PBS) containing 1% bovine serum albumin (BSA), then resuspended in 2 ml permeabilization buffer (0.1% Triton X-100 and 0.1% sodium citrate in PBS) for 25 minutes at room temperature and washed twice in 0.2 ml PBS/1% BSA. The cells are resuspended in 50 μl TUNEL reaction mixture (TdT enzyme and labeling solution) and incubated for 60 min at 37° C. in a humidified dark atmosphere in an incubator. The labeled cells are washed once in PBS/1% BSA, then resuspended in 0.5 ml ice-cold PBS containing 1 μg/ml 4,6-diamidino-2-phenylindole (DAPI) for at least 30 min. All cell samples are analyzed with a BD LSR II (BD Biosciences, San Jose, Calif.).

[2] = tested on: Colo375FG metastatic pancreatic adenocarcinoma cells; assay: Live cell number (Coulter counter, methylene blue, PI exclusion)
Description: Colo375FG metastatic pancreatic adenocarcinoma cells are cultured in Dulbecco Modified Eagle Medium with 10% fetal bovine serum. Cells are plated at 10^5 per P100 or at 10^4 per P60 (for assays requiring up to 3 days of culture), in the presence of different concentrations of BiPar compounds and other agents, or DMSO control. Following treatment, the number of attached cells is measured using Coulter counter, and by staining with 1% methylene blue. Methylene blue is dissolved in 50%-50% mixture of Methanol and water. Cells are plated in 24- or 96-well plates and treated with compounds as indicated, then media are aspirated, cells are washed with PBS, fixed in methanol for 5-10 min, washed and the plates are allowed to dry completely. Methylene blue solution is added to wells and plates are incubated for 5 min. Staining solution is removed and plates are washed with dH2O. After plates are completely dry, a small amount of 1N HCl is added to each well to extract the methylene blue. The OD readout at 600 nm and a calibration curve are used to determine cell number.
IIIg (6-nitro-5-iodo-benzopyrone) is dissolved directly from dry powder to 10 mM stock solution in DMSO for each separate experiment, and then the entire volume of the stock solution is used to prepare working concentrations in cell culture medium to avoid any possibility of precipitation and the corresponding loss of compound. Control experiments are carried out with the matching volume/concentration of the vehicle (DMSO).
(§1) After the addition of drugs and incubation, cells are trypsinized and aliquots of the samples are taken for counting and PI (Propidium Iodide) exclusion assay. One part of the cells is centrifuged and resuspended in 0.5 ml ice-cold PBS containing 5 μg/ml of PI. The other part of the cells is fixed in ice-cold 70% ethanol and stored in a freezer overnight. For cell cycle analysis, cells are stained with propidium iodide (PI) by standard procedures. Cellular DNA content is determined by flow cytometry using BD LSRII FACS, and the percentages of cells in G1, S or G2/M are determined using ModFit software.
Colo375FG metastatic pancreatic adenocarcinoma cells are obtained from ATCC and cultured in Dulbecco Modified Eagle Medium with 10% fetal bovine serum. Cells are plated at 10^5 cells per P100 cell culture dish or at 10^4 cells per P60 cell culture dish in the presence of different concentrations compounds or DMSO control. Following treatment, the number of attached cells is measured using Coulter counter, and by staining with 1% methylene blue. Methylene blue is dissolved in 50%-50% mixture of Methanol and water. Cells are plated in 24- or 96-well plates and treated as planned, media are aspirated, cells are washed with PBS, fixed in methanol for 5-10 min, methanol is aspirated and plates are allowed to dry completely. Methylene blue solution is added to wells and plates are incubated for 5 min. Staining solution is removed and plates are washed with dH2O until washes are no longer blue. After plates are completely dry, a small amount of 1N HCl is added to each well to extract the methylene blue. The OD readout at 600 nm and a calibration curve are used to determine cell number.
Compounds of the invention are dissolved directly from dry powder to 10 mM stock solution in DMSO for each separate experiment. Control experiments are carried out with the matching volume/concentration of the vehicle (DMSO). In these controls, the cells show no changes in their growth or cell cycle distribution.
as §1, with “ug/ml” for “μg/ml”, “Cellular DNA content is determined by flow cytometry using BD LSRII FACS, and the percentages of cells in G1, S or G2/M are determined using ModFit software.” left out

[3] = tested on: Colo375FG metastatic pancreatic adenocarcinoma cells; assay: Bromodeoxyuridine (BrdU) labeling assay (flow cytometry); conditions: Compound IIIc 12.5 mM; one value printed beside OxaliPt 0 10 20 mM, OxaliPt level not assignable
Description: 50 μl of BrdU (Sigma Chemical Co., St. Louis, Mo.) stock solution (1 mM) is added to give 10 μM BrdU final concentration. The cells are incubated for 30 min at 37° C. and fixed in ice-cold 70% ethanol and stored in a cold room (4° C.) overnight. Fixed cells are centrifuged and washed once in 2 ml PBS, then resuspended in 0.7 ml of denaturation solution (0.2 mg/ml pepsin in 2 N HCl) for 15 min at 37° C. in the dark and suspended with 1.04 ml 1M Tris buffer (Trizma base, Sigma Chemical Co.) to terminate the hydrolysis and washed in 2 ml PBS.
(§2) Cells are resuspended in 100-μl anti-BrdU antibody (DakoCytomation, Carpinteria, Calif.) with 1:100 dilution in TBFP permeable buffer (0.5% Tween-20, 1% bovine serum albumin and 1% fetal bovine serum in PBS) and incubated for 25 min at room temperature in the dark and washed in 2 ml PBS. The primary antibody-labeled cells are resuspended in 100 μl Alexa Fluor F(ab′)2 fragment of goat anti-mouse IgG (H+L) (2 mg/mL) (Molecular Probes, Eugene, Oreg.) with 1:200 dilution in TBFP permeable buffer and incubated for 25 min at room temperature in the dark and washed in 2 ml PBS, then resuspended in 0.5 ml ice-cold PBS containing 1 μg/ml 4′,6-diamidino-2-phenylindole (DAPI) for at least 30 min. All cell samples are analyzed with a BD LSR II (BD Biosciences, San Jose, Calif.).
as §2, with “50 μl of BrdU (Sigma Chemical Co., St. Louis, Mo.) stock solution (1 mM) is added to give 10 μM BrdU final concentration. The cells are incubated for 30 min at 37 °C and fixed in ice-cold 70% ethanol and stored in a cold room (4 °C) overnight. Fixed cells are centrifuged and washed once in 2 ml PBS, then resuspended in 0.7 ml of denaturation solution (0.2 mg/ml pepsin in 2 N HCl) for 15 min at 37° C. in the dark and suspended with 1.04 ml 1M Tris buffer (Trizma base, Sigma Chemical Co.) and washed in 2 ml PBS. Then cells” for “Cells”

[4] = Compound IIIc 12.5 mM, OxaliPt 0 mM
[5] = combination: Compound IIIc 12.5 mM + OxaliPt 10 mM
[6] = combination: Compound IIIc 12.5 mM + OxaliPt 20 mM

Compound: O=c1ccc2c(CCCCN3CC=C(c4ccccc4)CC3)c([N+](=O)[O-])ccc2o1 [IIIc]
- Dead cells TUNEL (%) [1, 4]: 2.7%
- Dead cells TUNEL (%) [1, 5]: 16.1%
- Dead cells TUNEL (%) [1, 6]: 28.2%
- Live Cell (%) [2, 4]: 54%
- Live Cell (%) [2, 5]: 33%
- Live Cell (%) [2, 6]: 25%
- Cells in S-phase of cell cycle (% BrdU+) [3]: 73.87%
